Tested on: Female CFLP mice
Test: Anti-hyperglycaemic activity: subcutaneous glucose load in fasted mice, area under blood glucose curve
Type: in vivo
Conditions: 24 h fasted female CFLP mice, glucose 1 g/kg s.c. 30 min after dosing, 2-hour AUC vs water controls
Description: Female CFLP mice, weighing approximately 25g, were fasted for 24 hours prior to the study. The compounds under study were administered orally as an aqueous solution to each of 6 mice. Thirty minutes later a blood sample (20ul) was obtained from the tail for the analysis of blood glucose. Immediately after taking this blood sample, glucose (lg/kg body weight) was administered subcutaneously to each mouse. Six mice were given water as a control. Blood samples were then obtained from each mouse at 30 minute intervals for 120 minutes.
Compounds that produced a significant (p<0.05) reduction of blood glucose, compared with control mice given water, at any time interval were considered active. The area under the blood glucose curve over the 2-hour period after the administration of the glucose was calculated for each compound and compared with the value for control animals.

[1] = Dose 5 µmol/kg orally as aqueous solution

O[C@@H](CNCCOc1ccc(OCCNC[C@H](O)c2ccccc2)cc1)c1ccccc1 [Example 3, (R,R)-a-a'-[1,4-Phenylenedioxybis [(2,1-ethanediyl)-imino]methylene] bis [benzenemethanol]] was tested, and the “% Reduction in area under blood glucose curve” value (“% Reduction in area” for short) [1] was 10%.
C[C@H](Cc1ccc(C[C@@H](C)NC[C@H](O)c2cccc(Cl)c2)cc1)NC[C@H](O)c1cccc(Cl)c1 [Example 2, (R,R,R,R)-α,α'-[1,4-Phenylenebis[(1-methyl-2,1-ethanediyl)imino]methylene]bis[3-chlorobenzenemethanol]] was tested, and the “% Reduction in area” value (Dose 25 µmol/kg orally as aqueous solution) was 49%.
In the case of O[C@@H](CNCCc1ccc(CCNC[C@H](O)c2ccccc2)cc1)c1ccccc1 [Example 4, (R,R)-a,a'-[1,4-Phenylenebis [(2,1-ethanediyl)imino]-methylene]bis[benzenemethanol]], the “% Reduction in area” value (Dose 12.5 µmol/kg orally as aqueous solution) is reported as 4.2%.
With O[C@@H](CNCCOc1ccc(OCCNC[C@H](O)c2cccc(Cl)c2)cc1)c1cccc(Cl)c1 [Example 5, (R,R)-α,α^1-[1,4-Phenylenedioxybis[(2,1-ethanediyl)-imino]methylene]bis[3-chlorobenzenemethanol]] the “% Reduction in area” value (Dose 2.5 µmol/kg orally as aqueous solution) was 30%.
In the case of O[C@@H](CNCCc1ccc(CCNC[C@H](O)c2cccc(Cl)c2)cc1)c1cccc(Cl)c1 [Example 6, (R,R)-a,a'-[1,4-Phenylenebis[(2,1-ethanediyl]imino]-methylene]bis[3-chlorobenzenemethanol]], the “% Reduction in area” value [1] is reported as 48%.

From patent EP0196849A2, “Aminohydroxyalkylbenzene anti-obesity and/or anti-hyperglycaemic agents” (BEECHAM GROUP PLC, priority 1985, dated 1986)
